Assay results: PMC8389655, “Au2phen and Auoxo6, Two Dinuclear Oxo-Bridged Gold(III) Compounds, Induce Apoptotic Signaling in Human Ovarian A2780 Cancer Cells” (Biomedicines, 2021)

Experiments:
[1] = test system: PNT1 (human normal prostate epithelium) cells; assay: MTT antiproliferative assay on PNT1 cells; assay type: cell-based; settings: for IC50: 72 h of treatment, MTT assay, mean ± SD of three experiments, read-out: Half-maximal inhibitory concentration (IC50), PNT1; for IC50 for PNT1 higher than for A2780 (fold): ratio of 72 h IC50 PNT1 / A2780
Protocol: The inhibition of cell proliferation by Au2phen, Auoxo6, and AuL12 on A2780 cell line was evaluated through MTT (3-(4,5-dimethylthiazol-2-yl)-2,5-diphenyltetrazolium bromide) test. Viable cells can convert MTT into formazan, which is coloured and detectable at 595 nm. Exponentially growing cells were seeded in 96 well-microplates at a density of 8 × 10^3 for 24 h and then gold compounds were added in fresh RPMI medium at concentrations ranging from 0.003 to 100 µM and incubated for 72 h. On the day of the test, cells were treated with 0.5 mg/mL MTT for 1 h at 37 °C. Following precipitation, blue formazan was dissolved in DMSO, and the optical density was read in a microplate reader interfaced with Microplate Manager/PV version 4.0 software (BioRad Laboratories, Hercules, USA). From the absorbance measurements, the half-maximal inhibitory concentration (IC50) value of each compound on A2780 cells was calculated using GraphPad Prism software version 6.0 (Graphpad Holdings, LLC, USA). The same protocol was applied on non-tumor cell lines, i.e., HEK and PNT1 cells.

caspase-3 = assay: FAM-FLICA caspase-3 activation, flow cytometry; assay type: cell-based, human; settings: A2780, 72 h at 72 h IC50 dose, compared to controls
Protocol: (§1) In addition, caspase-3, caspase-8, and caspase-9 activation was assessed in treated and untreated cells. Likewise, cells were trypsinized, washed with PBS, and suspended in FAM-FLICATM caspase solution (FAM-DEVD-FMK caspase FLICA kit, ImmunoChemistry Technologies, MN 55431 USA) for 30 min at 37 °C. Cells were then washed twice with PBS and analyzed using a FACSCantoII flow cytometer (BD Biosciences, New Jersey, USA).

caspase-9 = assay: FAM-FLICA caspase-9 activation, flow cytometry; assay type: cell-based, human; settings: A2780, 72 h at 72 h IC50 dose, compared to controls
Protocol: as §1

SMILES | IC50 [1] [µM] | IC50 for PNT1 higher than for A2780 (fold) [1] | caspase-3 activation (fluorescence intensity) (caspase-3) | cells showing caspase-9 activation (caspase-9)
Cc1ccc2ccc3ccc(C)[n+]4c3c2[n+]1[Au-]41[O][Au-]2([O]1)[n+]1c(C)ccc3ccc4ccc(C)[n+]2c4c31.F[P-](F)(F)(F)(F)F.F[P-](F)(F)(F)(F)F [Au2phen, ((2,9-dimethyl-1,10-phenanthroline)2Au2(µ-O)2)(PF6)2] | 11.8 ± 0.25 | about 14 fold | ~ 40% | 60%
Cc1cccc2[n+]1[Au-]1([O][Au-]3([O]1)[n+]1c(C)cccc1-c1cccc(C)[n+]13)[n+]1c(C)cccc1-2.F[P-](F)(F)(F)(F)F.F[P-](F)(F)(F)(F)F [Auoxo6, ((6,6′-dimethyl-2,2′-bipyridine)2Au2(µ-O)2)(PF6)2] | 18.4 ± 0.3 | ~16 fold | about 80% | 75%
CCOC(=O)CN(C)C1=[S+][Au-]([Br])([Br])[S]1 [AuL12, dibromo(ethylsarcosinedithiocarbamate)gold(III), reference compound] | 12.3 ± 0.17 | 3 fold | ~ 40% | ~ 30%
